Laboratory results as given in PMC2248166, “Quantitative peptide binding motifs for 19 human and mouse MHC class I molecules derived using positional scanning combinatorial peptide libraries” (Immunome Research, 2008).

Key:
Format in all cases: binding
H-2 D^b = H-2 D^b (Mus musculus, UniProt P01899)
H-2 D^d = H-2 D^d (Mus musculus, UniProt P01900)
HLA B*5801 = HLA B*5801 (Homo sapiens, UniProt P01889, A329T/C349S/D201E/D98Y/E176V/E187L/E204Q/E69T/G107R/I218V/I90N/K202T/L105A/L119I/N104I/N87E/Q89R/Q94S/R106L/R155S/R180L/R86G/S101N/S121R/S35A/S48A/T118I/V127L/V306I/V36M/Y140S/Y91M)
H-2 K^k = H-2 K^k (Mus musculus, UniProt P04223)
HLA B*5301 = HLA B*5301 (Homo sapiens, UniProt P01889, A329T/A93T/A95T/C349S/D201E/D98Y/E176V/E187L/E204Q/E69T/G107R/I218V/K202T/L105A/L119I/N104I/Q94N/R106L/R155S/R180L/S101N/S121R/S35A/S48A/T118I/V127L/V306I/V36M/Y140S/Y91F)
H-2 K^d = H-2 K^d (Mus musculus, UniProt P01902)
HLA B*3501 = HLA B*3501 (Homo sapiens, UniProt P01889, A329T/A93T/A95T/C349S/D201E/D98Y/E176V/E187L/E204Q/E69T/I218V/K202T/L119I/Q94N/R155S/R180L/S121R/S35A/S48A/T118I/V127L/V306I/V36M/Y140S/Y91F)
HLA B*1503 = HLA B*1503 (Homo sapiens, UniProt P01889, A329T/A93T/A95T/C349S/D201E/D98Y/E187L/E204Q/K202T/N87E/Q94N/R155S/R180L/S121R/S35A/V306I/V36M/Y140S/Y91S); assay: biochemical
HLA B*5101 = HLA B*5101 (Homo sapiens, UniProt P01889, A329T/A93T/A95T/C349S/D138N/D201E/D98Y/E187L/E204Q/E69T/G107R/I218V/K202T/L105A/L119W/N104I/Q94N/R106L/R155S/R180L/S101N/S121T/S35A/S48A/V306I/V36M/Y195H/Y91F)
HLA B*1501 = HLA B*1501 (Homo sapiens, UniProt P01889, A329T/A93T/A95T/C349S/D201E/D98Y/E187L/E204Q/E69M/E70A/K202T/N87E/Q94N/R155S/R180W/S121R/S35A/S48A/V306I/V36M/Y140S/Y91S); assay: biochemical
HLA B*0801 = HLA B*0801 (Homo sapiens, UniProt P01889, A93T/A95T/D138N/E176V/E187T/K202T/Q94N/R180D/S35A/V36M/Y33D/Y91F); assay: biochemical
HLA A*6802 = HLA A*6802 (Homo sapiens, UniProt P04439, A269V/D140Y/D185E/E176V/E277Q/E87N/F33Y/G231S/I121R/I166T/I218V/L180W/L300P/L318F/N151K/P208A/P217A/Q86R/R138H/R169H/S129P/T345S/V36M)
HLA A*3001 = HLA A*3001 (Homo sapiens, UniProt P04439, D140H/D185E/E176W/F33S/G80R/H175R/K168Q/R138E/R41S); assay: biochemical
HLA A*3201 = HLA A*3201 (Homo sapiens, UniProt P04439, A270S/D101S/D185E/E176V/E277Q/F133L/G103R/G107R/G231S/H175R/I121M/I218V/I322F/K168Q/L105A/L300P/L318F/M331R/P208A/P217A/Q94H/R106L/R138Q/S129P/T104I/T323A/T345S/V100E/V321M/V358M); assay: biochemical
HLA B*5401 = HLA B*5401 (Homo sapiens, UniProt P01889, A329T/C349S/D138N/D201E/E176V/E187T/E204Q/E69G/I76V/K202T/L119W/R155S/R180L/S121T/S35A/S48A/V127L/V306I/V36M/Y140L)
HLA B*5802 = HLA B*5802 (Homo sapiens, UniProt P01889, A329T/C349S/D201E/D98Y/E176V/E187L/E204Q/E69T/G107R/I218V/I90N/K202T/L105A/N104I/N87E/Q89R/Q94S/R106L/R155S/R180L/R86G/S101N/S121W/S35A/S48A/V127L/V306I/V36M/Y140S/Y91M)

Sequence of H-2 K^k (P01887 21-119): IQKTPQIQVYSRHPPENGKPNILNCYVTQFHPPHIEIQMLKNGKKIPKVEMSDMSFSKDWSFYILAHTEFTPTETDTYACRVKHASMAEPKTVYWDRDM
Sequence of H-2 K^k (P04223 22-369): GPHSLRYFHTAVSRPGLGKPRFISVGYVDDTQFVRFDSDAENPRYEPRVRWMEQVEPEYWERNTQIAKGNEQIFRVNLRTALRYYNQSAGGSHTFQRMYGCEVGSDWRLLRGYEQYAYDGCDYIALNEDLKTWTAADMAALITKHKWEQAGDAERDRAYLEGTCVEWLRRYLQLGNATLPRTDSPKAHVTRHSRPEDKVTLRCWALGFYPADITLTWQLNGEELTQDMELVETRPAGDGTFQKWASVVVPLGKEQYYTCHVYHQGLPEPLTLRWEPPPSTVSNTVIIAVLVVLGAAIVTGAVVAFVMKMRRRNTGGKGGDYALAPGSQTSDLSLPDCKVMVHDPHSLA
Sequence of H-2 K^d (P01887 21-119): as the sequence (P01887 21-119) above
Sequence of H-2 K^d (P01902 22-368): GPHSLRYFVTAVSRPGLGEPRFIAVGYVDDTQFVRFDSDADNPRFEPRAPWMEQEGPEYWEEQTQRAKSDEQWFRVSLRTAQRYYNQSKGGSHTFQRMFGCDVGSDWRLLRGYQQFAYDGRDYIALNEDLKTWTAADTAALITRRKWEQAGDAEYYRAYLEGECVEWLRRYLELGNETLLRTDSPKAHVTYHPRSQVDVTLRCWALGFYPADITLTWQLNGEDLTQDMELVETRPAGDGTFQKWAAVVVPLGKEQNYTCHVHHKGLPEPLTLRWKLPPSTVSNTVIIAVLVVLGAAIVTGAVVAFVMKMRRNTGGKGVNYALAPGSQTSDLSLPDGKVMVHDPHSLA
Sequence of H-2 D^b (P01887 21-119): as the sequence (P01887 21-119) above
Sequence of H-2 D^b (P01899 25-362): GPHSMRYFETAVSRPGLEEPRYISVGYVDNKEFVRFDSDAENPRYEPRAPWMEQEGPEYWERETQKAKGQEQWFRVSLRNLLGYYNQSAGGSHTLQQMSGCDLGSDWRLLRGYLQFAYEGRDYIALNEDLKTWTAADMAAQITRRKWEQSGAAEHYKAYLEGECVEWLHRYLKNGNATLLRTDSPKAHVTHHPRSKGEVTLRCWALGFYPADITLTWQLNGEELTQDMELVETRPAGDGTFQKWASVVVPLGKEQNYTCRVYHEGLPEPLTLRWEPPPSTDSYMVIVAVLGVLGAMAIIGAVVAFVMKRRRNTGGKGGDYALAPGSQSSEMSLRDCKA
Sequence of H-2 D^d (P01900 whole entry, looked up): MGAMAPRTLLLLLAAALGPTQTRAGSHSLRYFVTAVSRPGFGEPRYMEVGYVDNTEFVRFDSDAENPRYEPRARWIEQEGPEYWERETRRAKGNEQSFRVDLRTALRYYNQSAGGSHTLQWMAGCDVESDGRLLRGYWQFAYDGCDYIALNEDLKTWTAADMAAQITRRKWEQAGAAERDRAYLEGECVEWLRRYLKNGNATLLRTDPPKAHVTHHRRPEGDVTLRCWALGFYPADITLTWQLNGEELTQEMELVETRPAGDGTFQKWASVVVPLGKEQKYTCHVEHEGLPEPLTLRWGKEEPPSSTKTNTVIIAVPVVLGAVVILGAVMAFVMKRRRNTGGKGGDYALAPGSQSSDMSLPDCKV

Row | Sequence | Normalized average relative binding affinity(ARB) (H-2 D^b) | Normalized average relative binding affinity(ARB) (H-2 D^d) | Normalized average relative binding affinity(ARB) (HLA B*5801) | Normalized average relative binding affinity(ARB) (H-2 K^k) | Normalized average relative binding affinity(ARB) (HLA B*5301) | Normalized average relative binding affinity(ARB) (H-2 K^d) | Normalized average relative binding affinity(ARB) (HLA B*3501) | Normalized average relative binding affinity(ARB) (HLA B*1503) | Normalized average relative binding affinity(ARB) (HLA B*5101) | Normalized average relative binding affinity(ARB) (HLA B*1501) | Normalized average relative binding affinity(ARB) (HLA B*0801) | Normalized average relative binding affinity(ARB) (HLA A*6802) | Normalized average relative binding affinity(ARB) (HLA A*3001) | Normalized average relative binding affinity(ARB) (HLA A*3201) | Normalized average relative binding affinity(ARB) (HLA B*5401) | Normalized average relative binding affinity(ARB) (HLA B*5802)
1 | XXXXXXXIX [3064.0148] | 0.14 | 0.25 | 0.39 | 0.56 | 1.0 | 0.30 | 0.55 | 0.33 | 0.21 | 0.18 | 0.39 | 0.051 | 0.21 | 0.60 | 0.11 | 0.41
2 | XXXXXXXKX [3064.0149] | 0.076 | 0.24 | 0.14 | 0.13 | 0.78 | 0.23 | 0.36 | 0.085 | 0.20 | 0.24 | 0.14 | 0.12 | 0.12 | 0.24 | 0.099 | 0.15
3 | XXXXXXXLX [3064.0150] | 0.46 | 0.80 | 0.43 | 0.54 | 0.42 | 0.43 | 0.31 | 0.13 | 0.86 | 0.15 | 0.11 | 0.16 | 0.23 | 0.29 | 0.053 | 0.57
4 | XXXXXXXMX [3064.0151] | 0.17 | 0.47 | 0.18 | 0.49 | 0.33 | 0.43 | 0.28 | 0.14 | 0.32 | 0.061 | 0.24 | 0.16 | 0.14 | 0.52 | 0.045 | 0.32
5 | XXXXXXXNX [3064.0152] | 0.099 | 0.49 | 0.25 | 0.066 | 0.21 | 0.40 | 0.14 | 0.13 | 0.33 | 0.12 | 0.086 | 0.18 | 0.54 | 0.42 | 0.076 | 0.27
6 | XXXXXXXPX [3064.0153] | 1.0 | 0.73 | 0.18 | 0.44 | 0.15 | 0.75 | 0.64 | 0.30 | 0.51 | 0.35 | 0.73 | 0.33 | 0.80 | 0.87 | 0.72 | 0.16
7 | XXXXXXXQX [3064.0154] | 0.16 | 0.68 | 0.39 | 0.19 | 0.16 | 0.54 | 0.10 | 0.19 | 0.32 | 0.17 | 0.15 | 0.14 | 0.27 | 0.35 | 0.11 | 0.30
8 | XXXXXXXRX [3064.0155] | 0.068 | 0.46 | 0.13 | 0.10 | 0.46 | 0.49 | 0.072 | 0.11 | 0.36 | 0.15 | 0.30 | 0.13 | 0.35 | 0.26 | 0.059 | 0.37
